Literature values as cited in publication PMC3309614 (Journal of the American Chemical Society, 2011).

Test system: kinesin-5 L214A
Conditions: L214A mutation in allosteric binding site

S-Trityl-L-cyteine [STLC]
effect of L214A mutation on inhibition: known to suppress STLC inhibition
